Legend:
α2 -adrenoreceptor = test: neurogenic contractions of rat vas deferens (α2-adrenergic activity); details: electrically stimulated rat vas deferens
Experimental: (§1) In such determination, vas deferens of rat is suspended under tension between two platinum electrodes of an organ bath containing Tyrode's solution and contractile responses to electrical stimulation recorded. Agonist drug is added and EC50 values determined. After wash out, an antagonist drug is added and after a suitable period of contact with the tissue, the EC50 values of agonist in presence of antagonist are similarly determined.
(§2) These properties indicate suitability for use as an antidepressant.

α1 -adrenoreceptor = test: neurogenic contractions of rat vas deferens (α1-adrenergic activity); details: electrically stimulated rat vas deferens
Experimental: as §1, §2

vascular smooth muscle = test: inhibition of calcium induced contraction of vascular smooth muscle; design: species or system male Sprague-Dawley rats; details: 10^-7 M; contraction induced by 1.0 mM calcium chloride in depolarized rat vascular smooth muscle
Experimental: The property may be observed in a test in which segments of vascular smooth muscle obtained from male Sprague-Dawley rats are suspended in physiological salt solution in a tissue bath instrumented for recording contractions. After the tissue has been equilibrated, washed in calcium-free physiological salt solution and then depolarized, 1.0 mM calcium chloride is re-added to induce contraction. After the contraction has reached a plateau, tissues are washed and a test compound or vehicle is added to determine the effect on a second contraction achieved by the above cyclic protocol. From measuring the initial contraction as well as the second contraction in the presence of the test compound, the extent of inhibition may be calculated.

Row | Structure (SMILES) | antagonism of the inhibition of contractions produced by clonidine (α2 -adrenoreceptor; agonist clonidine) | antagonism of the response to methoxamine (α1 -adrenoreceptor; agonist methoxamine) | effect on neurogenic contractions of the rat vas deferens when given alone (α1 -adrenoreceptor; compound alone) | inhibition at 0.1 µM (vascular smooth muscle) | effect on neurogenic contractions of the rat vas deferens (α2 -adrenoreceptor; antagonism by rauwolscine)
1 | Brc1ccc2c(c1)C(N=C1NCCN1)c1ccccc1C=C2.I (stereo not drawn) [N-(2-Imidazolidinylidene)-3-bromo-5H-dibenzo[a,d]cyclohepten-5-amine Hydroiodide] | antagonized the inhibition of contractions produced by clonidine | antagonized the response to methoxamine with a similar order of potency | enhanced the neurogenic contractions of the rat vas deferens | 40% | 
2 | C1=Cc2ccccc2C(N=C2NCCN2)c2ccccc21.I [N-(2-Imidazolidinylidene)-5H-dibenzo[a,d]cyclohepten-5-amine Hydroiodide] |  |  |  | 56% | inhibit neurogenic contractions of the rat vas deferens which was antagonized by rauwolscine

— patent publication US4590202A, “N-(2-imidazolidinylidene)-5H-dibenzo[a,d]cyclohepten-5-amine compounds and α2 -adrenergic antagonistic uses thereof” (Merck & Co., Inc., priority 1984, dated 1986)
